Measured values: patent US12576099B2, “Ribose-modified cap analog and use thereof” (Beijing Youcare Kechuang Pharmaceutical Technology Co., Ltd., priority 2024, dated 2026)

Columns and labels:
[1] = target: T7 RNA polymerase (Escherichia phage T7, UniProt P00573); assay: Capping rate of mRNA transcription initiated by cap analogs (LC-MS); type: biochemical; conditions: for Capping rate: LC-MS of mRNA 5′ fragment
Experimental: During the experiment, the volume of materials required for the system was first calculated, and then sample addition was conducted. The system was first added with sterile enzyme-free water, followed by the sequential addition of 10× buffer, NTPs, and cap analogs, mixed well, and gently centrifuged. Nuclease inhibitors, inorganic pyrophosphatase, T7RNA polymerase, and linearized DNA templates were then added thereto. The system was mixed well, gently centrifuged, and incubated at 37° C. After 2 hours of incubation, the system was added with 1 U of DNase I and incubated at 37° C. for another 30 minutes. The mRNA precipitate was then washed with 75% ethanol, and after the ethanol was briefly evaporated to dryness, the mRNA was redissolved in sterile enzyme-free water. • (3) The transcription product was purified, and the in vitro transcription yield of mRNA was recorded. • (4) The obtained mRNA was subjected to an annealing reaction with a probe.
The annealing reaction was performed in a PCR instrument: 95° C. for 5 minutes; 65° C. for 2 minutes; 55° C. for 2 minutes; 40° C. for 2 minutes; 22° C. for 2 minutes. • (5) Magnetic bead pretreatment and probe binding: 100 μL of magnetic beads was placed on a magnetic frame for pretreatment. The magnetic bead solution was added with 120 μL of sample and incubated at room temperature for 30 minutes with slow mixing. • (6) mRNA splicing and obtaining the mRNA 5′ single-strand sequence bound to the probe
The mixture was added with 20 μL of RNase H (5 U/μL) and incubated at 37° C. for 3 hours with mixing every half hour. After incubation, the magnetic beads were washed and then added with 100 μL of 75% methanol heated to 80° C. The mixture was heated to 80° C. on a heating plate, held for 3 minutes, then placed on a magnetic frame to aspirate the supernatant, and dried at room temperature for 45 minutes to a volume of 10 μL using a centrifugal evaporator. The sample was then resuspended in 50 μL of 100 μM EDTA/1% MeOH and ready for LC-MS analysis to determine the capping of RNA in the transcription reaction. Since there is a significant difference in molecular weight between capped and uncapped bases, the capping rate of mRNA transcription initiated by different cap analogs can be determined based on the difference in molecular mass.

[2] = test system: HEK293T cells; assay: Translation efficiency of different capped luciferase mRNAs; type: cell-based; conditions: for Relative fluorescence intensity: HEK293T, 0.5 μg mRNA per well, 24 hours, proportional to translation efficiency; for Multiple of m6A (relative fluorescence intensity): relative to m6A; for Relative fluorescence intensity, times that of HN3002: relative to HN3002; for Relative fluorescence intensity, times that of N-7113: relative to N-7113; for Relative fluorescence intensity (translation efficiency), times that of YK-CAP-101: relative to YK-CAP-101; for Relative fluorescence intensity, times that of YK-CAP-102: relative to YK-CAP-102; for Relative fluorescence intensity, times that of YK-CAP-103: relative to YK-CAP-103; for Relative fluorescence intensity, times that of YK-CAP-104: relative to YK-CAP-104; for Relative fluorescence intensity, times that of YK-CAP-105: relative to YK-CAP-105; for Relative fluorescence intensity, times that of compound 14: relative to compound 14
Experimental: • (1) HEK293T cells were cultured in DMEM medium containing 10% FBS and penicillin/streptomycin at 37° C. with 5% CO2. • (2)Cells in the culture dish were digested and counted, then spread in a 96-well plate at 10,000 cells per well, and cultured overnight until the cells adhered to the wall. • (3) When the cell density reached approximately 80%, transfection was performed by adding 0.5 μg of mRNA sample and Lipofectamine MessengerMAX Transfection Reagent (Invitrogen) per well according to the manufacturer's instructions. • (4) After the transfected cells were cultured at 37° C. with 5% CO2 for 24 hours, the growth medium was removed from the cells to be tested, and the cells were rinsed with PBS. After centrifugation to remove PBS, 50 μL of 1× lysis buffer was added. The cells and all liquid were transferred to a microcentrifuge tube and centrifuged. • (5) 20 μL of sample was taken and added to 100 μL of Dual-Lumi™ II Luciferase Assay Reagent pre-equilibrated to room temperature, and mixed appropriately. • (6) The mixture was incubated at room temperature (approximately 25° C.) for 5 minutes to stabilize the luminescence signal. Chemiluminescence was detected using a multifunctional microplate reader with a function for detecting chemiluminescence, and the data were recorded.
The relative fluorescence intensity is proportional to the translation efficiency of mRNA.

Chain of T7 RNA polymerase (P00573 whole entry, the tested form may be a part): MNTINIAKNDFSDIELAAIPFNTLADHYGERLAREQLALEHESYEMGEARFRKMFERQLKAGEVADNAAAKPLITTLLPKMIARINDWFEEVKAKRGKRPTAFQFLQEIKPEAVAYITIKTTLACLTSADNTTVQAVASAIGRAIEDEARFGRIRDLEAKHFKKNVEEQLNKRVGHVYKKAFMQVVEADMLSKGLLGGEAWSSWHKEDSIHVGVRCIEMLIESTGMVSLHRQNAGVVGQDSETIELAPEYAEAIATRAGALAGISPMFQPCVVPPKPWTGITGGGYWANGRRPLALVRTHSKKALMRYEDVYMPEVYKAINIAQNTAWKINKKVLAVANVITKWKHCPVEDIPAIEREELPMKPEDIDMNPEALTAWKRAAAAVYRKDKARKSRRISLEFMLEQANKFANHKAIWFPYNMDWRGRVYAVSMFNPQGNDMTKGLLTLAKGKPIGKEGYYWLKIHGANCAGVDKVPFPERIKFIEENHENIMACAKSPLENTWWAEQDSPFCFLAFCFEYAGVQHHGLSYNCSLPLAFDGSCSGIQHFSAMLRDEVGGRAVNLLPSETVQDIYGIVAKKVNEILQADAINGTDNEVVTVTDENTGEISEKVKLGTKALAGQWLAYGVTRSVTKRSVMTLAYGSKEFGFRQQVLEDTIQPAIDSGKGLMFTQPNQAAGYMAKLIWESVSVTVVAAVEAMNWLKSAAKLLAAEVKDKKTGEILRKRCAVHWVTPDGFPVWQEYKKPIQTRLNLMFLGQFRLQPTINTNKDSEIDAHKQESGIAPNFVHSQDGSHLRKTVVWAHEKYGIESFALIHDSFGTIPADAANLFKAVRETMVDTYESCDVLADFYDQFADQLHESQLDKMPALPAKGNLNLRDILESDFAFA

| SMILES | Capping rate [1] [%] | Increase relative to 5227 (capping rate) [1] [%] | Relative fluorescence intensity [2] | Multiple of m6A (relative fluorescence intensity) [2] | also measured |
| --- | --- | --- | --- | --- | --- |
| CO[C@@H]1[C@H](OP(=O)(O)OC[C@H]2O[C@@H](n3cnc4c(=O)[nH]c(N)nc43)[C@H](O)[C@@H]2O)[C@@H](COP(=O)(O)OP(=O)(O)OP(=O)(O)OC[C@H]2OC([n+]3cn(C)c4c(=O)[nH]c(N)nc43)[C@H](O)[C@@H](O)[C@@H]2O)O[C@H]1n1cnc2c(N)ncnc21 (stereo partly shown) [YK-CAP-101] | 42.8 | −40.5 | 0.22 | 0.6 |  |
| CO[C@@H]1[C@H](OP(=O)(O)OC[C@H]2O[C@@H](n3cnc4c(=O)[nH]c(N)nc43)[C@H](O)[C@@H]2O)[C@@H](COP(=O)(O)OP(=O)(O)OP(=O)(O)OC[C@H]2O[C@@H]([n+]3cn(C)c4c(=O)[nH]c(N)nc43)[C@H](O)[C@@H]2C(F)F)O[C@H]1n1cnc2c(N)ncnc21 [YK-CAP-110] | 97.4 | 35.5 | 1.95 | 5.1 | Relative fluorescence intensity, times that of HN3002 [2]: 1.7 times; Relative fluorescence intensity, times that of N-7113 [2]: 1.9 times; Relative fluorescence intensity (translation efficiency), times that of YK-CAP-101 [2]: 8.9 times; Relative fluorescence intensity, times that of YK-CAP-102 [2]: 5.7 times; Relative fluorescence intensity, times that of YK-CAP-103 [2]: 2.5 times; Relative fluorescence intensity, times that of YK-CAP-104 [2]: 2.4 times; Relative fluorescence intensity, times that of YK-CAP-105 [2]: 2.7 times; Relative fluorescence intensity, times that of compound 14 [2]: 1.7 times |
| CO[C@@H]1[C@H](OP(=O)(O)OC[C@H]2O[C@@H](n3cnc4c(=O)[nH]c(N)nc43)[C@H](O)[C@@H]2O)[C@@H](COP(=O)(O)OP(=O)(O)OP(=O)(O)OC[C@@]2(CF)O[C@@H]([n+]3cn(C)c4c(=O)[nH]c(N)nc43)[C@H](O)[C@@H]2O)O[C@H]1n1cnc2c(N)ncnc21 [YK-CAP-118] | 97.2 | 35.2 | 1.65 | 4.3 |  |
| CO[C@@H]1[C@H](OP(=O)(O)OC[C@H]2O[C@@H](n3cnc4c(=O)[nH]c(N)nc43)[C@H](O)[C@@H]2O)[C@@H](COP(=O)(O)OP(=O)(O)OP(=O)(O)OC[C@@]2(C(F)F)O[C@@H]([n+]3cn(C)c4c(=O)[nH]c(N)nc43)[C@H](O)[C@@H]2O)O[C@H]1n1cnc2c(N)ncnc21 [YK-CAP-119] | 96.3 | 33.9 | 1.45 | 3.8 |  |
| CO[C@@H]1[C@H](OP(=O)(O)OC[C@H]2O[C@@H](n3cnc4c(=O)[nH]c(N)nc43)[C@H](O)[C@@H]2O)[C@@H](COP(=O)(O)OP(=O)(O)OP(=O)(O)OC[C@H]2O[C@@H]([n+]3cn(C)c4c(=O)[nH]c(N)nc43)[C@H](O)[C@@H]2C(C)F)O[C@H]1n1cnc2c(N)ncnc21 (stereo partly shown) [YK-CAP-109] | 95.2 | 32.4 | 1.53 | 4.0 |  |
| CO[C@@H]1[C@H](OP(=O)(O)OC[C@H]2O[C@@H](n3cnc4c(=O)[nH]c(N)nc43)[C@H](O)[C@@H]2O)[C@@H](COP(=O)(O)OP(=O)(O)OP(=O)(O)OC[C@H]2O[C@@H]([n+]3cn(C)c4c(=O)[nH]c(N)nc43)[C@H](O)[C@@H]2C(C)NC(C)=O)O[C@H]1n1cnc2c(N)ncnc21 (stereo partly shown) [YK-CAP-108] | 95.8 | 33.2 | 1.43 | 3.8 |  |
| CO[C@@H]1[C@H](OP(=O)(O)OC[C@H]2O[C@@H](n3cnc4c(=O)[nH]c(N)nc43)[C@H](O)[C@@H]2O)[C@@H](COP(=O)(O)OP(=O)(O)OP(=O)(O)OC[C@@]2(OC)O[C@@H]([n+]3cn(C)c4c(=O)[nH]c(N)nc43)[C@H](O)[C@@H]2O)O[C@H]1n1cnc2c(N)ncnc21 [compound 5227, reference compound] | 71.9 | 0 | 0.82 | 2.2 |  |
| COC[C@@H]1[C@H](OP(=O)(O)OC[C@H]2O[C@@H](n3cnc4c(=O)[nH]c(N)nc43)[C@H](O)[C@@H]2O)[C@@H](COP(=O)(O)OP(=O)(O)OP(=O)(O)OC[C@H]2O[C@@H]([n+]3cn(C)c4c(=O)[nH]c(N)nc43)[C@H](O)[C@@H]2O)O[C@H]1n1cnc2c(N)ncnc21 [YK-CAP-113] | 95.2 | 32.4 | 1.63 | 4.3 |  |
| COC(C)[C@H]1[C@@H](O)[C@H]([n+]2cn(C)c3c(=O)[nH]c(N)nc32)O[C@@H]1COP(=O)(O)OP(=O)(O)OP(=O)(O)OC[C@H]1O[C@@H](n2cnc3c(N)ncnc32)[C@H](OC)[C@@H]1OP(=O)(O)OC[C@H]1O[C@@H](n2cnc3c(=O)[nH]c(N)nc32)[C@H](O)[C@@H]1O (stereo partly shown) [YK-CAP-107] | 97.3 | 35.3 | 1.62 | 4.3 |  |
| COC[C@]1(COP(=O)(O)OP(=O)(O)OP(=O)(O)OC[C@H]2O[C@@H](n3cnc4c(N)ncnc43)[C@H](OC)[C@@H]2OP(=O)(O)OC[C@H]2O[C@@H](n3cnc4c(=O)[nH]c(N)nc43)[C@H](O)[C@@H]2O)O[C@@H]([n+]2cn(C)c3c(=O)[nH]c(N)nc32)[C@H](O)[C@@H]1O [YK-CAP-117] | 95.1 | 32.3 | 1.82 | 4.8 |  |
| CCN(CC)C(=O)[C@H]1[C@@H](O)[C@H]([n+]2cn(C)c3c(=O)[nH]c(N)nc32)O[C@@H]1COP(=O)(O)OP(=O)(O)OP(=O)(O)OC[C@H]1O[C@@H](n2cnc3c(N)ncnc32)[C@H](OC)[C@@H]1OP(=O)(O)OC[C@H]1O[C@@H](n2cnc3c(=O)[nH]c(N)nc32)[C@H](O)[C@@H]1O [YK-CAP-111] | 98.1 | 36.4 | 2.12 | 5.6 | Capping rate, times that of YK-CAP-101 ([1]; relative to YK-CAP-101): 2.3 times; Capping rate, times that of YK-CAP-102 ([1]; relative to YK-CAP-102): 3.2 times; Capping rate, times that of YK-CAP-103 ([1]; relative to YK-CAP-103): 1.4 times; Capping rate, times that of YK-CAP-104 ([1]; relative to YK-CAP-104): 1.3 times; Capping rate, times that of YK-CAP-105 ([1]; relative to YK-CAP-105): 1.4 times; Capping rate higher than that of compound 14 ([1]; relative to compound 14): 25.3%; Relative fluorescence intensity, times that of HN3002 [2]: 1.9 times; Relative fluorescence intensity, times that of N-7113 [2]: 2.1 times; Relative fluorescence intensity (translation efficiency), times that of YK-CAP-101 [2]: 9.6 times; Relative fluorescence intensity, times that of YK-CAP-102 [2]: 6.2 times; Relative fluorescence intensity, times that of YK-CAP-103 [2]: 2.8 times; Relative fluorescence intensity, times that of YK-CAP-104 [2]: 2.6 times; Relative fluorescence intensity, times that of YK-CAP-105 [2]: 2.9 times; Relative fluorescence intensity, times that of compound 14 [2]: 1.9 times |
| CO[C@@H]1[C@H](OP(=O)(O)OC[C@H]2O[C@@H](n3cnc4c(=O)[nH]c(N)nc43)[C@H](O)[C@@H]2O)[C@@H](COP(=O)(O)OP(=O)(O)OP(=O)(O)OC[C@H]2O[C@@H]([n+]3cn(C)c4c(=O)[nH]c(N)nc43)[C@H](O)[C@]2(C)NC(C)=O)O[C@H]1n1cnc2c(N)ncnc21 [YK-CAP-106] | 95.3 | 32.5 | 1.53 | 4.0 |  |
